Consider one compound from US20190106688A1, “FUSION PROTEIN FOR CRISPR/CAS SYSTEM AND COMPLEX COMPRISING THE SAME AND USES THEREOF” (KOREA INSTITUTE OF SCIENCE AND TECHNOLOGY, priority 2017, published 2019).

The test system of this assay is A549 cells and A549 xenografts. Nature of the assay: Immunoblot analysis of EGFR downstream signaling (ERK, AKT) in A549 cells and A549 xenografts. In kind it is cell-based. To be noted: in vitro and in vivo samples. As for the experimental part:
The treated cells or tumor tissues were lysed using an RIPA lysis buffer (Sigma) unsupplemented or supplemented with a phosphatase inhibitor+a protease inhibitor (Thermo Scientific). A total of 50 μg of protein was analyzed by immunoblotting via incubation at 4° C. overnight with Sprimary antibody specific to KRAS (Santa Cruz, 1:200 dilution), p-ERK (cell signal, 1:1000 dilution), ERK (Cell Signaling, 1:1000 dilution), and β-Actin (Abcam, 1:10000 dilution) and then incubation with secondary antibodies conjugated with horseradish peroxidase for 2 hours at room temperature. The proteins were visualized by chemicalluminescence using a Western ECL substrate (Bio-Rad) and luminescence images were analyzed by a LAS-3000 (Fujifilm). Band intensities were quantified using ImageJ software.
FIG. 6D illustrates immunoblot analysis of EGFR downstream signaling pathways in A549 cells and A549 xenografts.

As for `Cn1cnc2c(F)c(Nc3ccc(Br)cc3Cl)c(C(=O)NOCCO)cc21` [AZD6244], the “activation (phosphorylation) of ERK” value is reported as “inhibited only activation of ERK”.
